pIC50, pKd: −log10 of the molar value. Like-named read-outs stand apart in the source and are kept apart here.
What was measured:
[1] = target: GDP-bound KRAS wild-type protein (Homo sapiens, UniProt P01116); assay: Binding to KRAS by surface plasmon resonance (SPR), dissociation constant KD
Outline: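 Each cycle, GDP-bound biotin-Avi RAS was captured (~100–300 RU), compound concentrations were injected low to high for 75 s each at 100 µL/min, then the chip was regenerated. Buffer: HBS pH 7.4, 10 mM MgCl2, 10 µM GDP, 1 mM DTT, 4% DMSO; 30°C. KD from a 1:1 binding model.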

[2] = target: GDP-bound NRAS wild-type protein (Homo sapiens, UniProt P01111); assay: Binding to NRAS by surface plasmon resonance (SPR), KD and KD ratio to KRAS
Outline: (§1)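 Running buffer contained 10 µM GDP and 10 mM MgCl2 to keep RAS in the GDP state, with 4% DMSO at pH 7.4. Compounds were flowed at 100 µL/min in 75 s steps of rising concentration over captured biotin-Avi RAS at 30°C. Sensorgrams were fitted 1:1 for KD.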

HRAS wild-type protein = HRAS wild-type protein (Homo sapiens, UniProt P01112); assay: Binding to HRAS by surface plasmon resonance (SPR), KD and KD ratio to KRAS
Outline: as §1

[3] = tested on: human lung cancer strain NCI-H441; assay: NCI-H441 cell proliferation inhibitory activity (CellTiter-Glo, 4 days); type: cell-based; conditions: read-out: NCl-H441 IC50
Outline: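 Step one: dispense the test compound in serial DMSO dilutions. Step three: add the reagent and measure […].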

[4] = ratio of KD for GDP-bound NRAS wild-type protein to KD for KRAS
[5] = ratio of KD for HRAS wild-type protein to KD for KRAS
[6] = Single Cycle Kinetics, 1:1 binding model
[7] = ratio of KD with respect to GDP-bound NRAS wild-type protein to KD with respect to KRAS
[8] = ratio of KD with respect to HRAS wild-type protein to KD with respect to KRAS
[9] = 50% proliferation inhibitory concentration, four days

Chain of GDP-bound NRAS wild-type protein (P01111 whole entry): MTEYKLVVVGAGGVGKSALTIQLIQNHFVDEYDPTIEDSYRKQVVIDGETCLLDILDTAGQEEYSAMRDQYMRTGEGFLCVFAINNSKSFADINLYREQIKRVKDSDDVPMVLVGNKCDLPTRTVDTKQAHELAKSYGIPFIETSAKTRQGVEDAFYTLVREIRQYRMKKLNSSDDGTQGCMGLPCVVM
Chain of HRAS wild-type protein (P01112 whole entry): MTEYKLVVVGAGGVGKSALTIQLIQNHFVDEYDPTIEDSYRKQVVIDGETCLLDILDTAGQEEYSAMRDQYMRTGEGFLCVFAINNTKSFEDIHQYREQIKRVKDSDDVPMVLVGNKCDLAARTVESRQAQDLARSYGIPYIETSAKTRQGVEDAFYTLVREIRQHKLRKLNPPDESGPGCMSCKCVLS
Chain of GDP-bound KRAS wild-type protein (P01116 1-188 isoform P01116-2): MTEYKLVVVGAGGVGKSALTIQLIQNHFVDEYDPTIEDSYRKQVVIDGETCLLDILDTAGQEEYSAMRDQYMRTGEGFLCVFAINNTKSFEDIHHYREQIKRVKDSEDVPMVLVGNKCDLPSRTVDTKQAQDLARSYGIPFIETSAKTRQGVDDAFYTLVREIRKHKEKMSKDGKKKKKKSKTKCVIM

| pKd ([1]; Single Cycle Kinetics) | pIC50 ([3]; NCI-H441 cells, 4 days) | pKd ([1]; 1:1 binding model) | pKd [1, 6] | pIC50 [3, 9] | SMILES | NRAS /KRAS [2, 4] | HRAS /KRAS (HRAS wild-type protein; [5]) | NRAS /KRAS [2, 7] | HRAS /KRAS (HRAS wild-type protein; [8]) |
| --- | --- | --- | --- | --- | --- | --- | --- | --- | --- |
| 9.38 | 7.88 |  |  |  | CCC[C@H]1C(=O)N[C@@H]([C@@H](C)CC)C(=O)N(C)CC(=O)N(C)[C@H]2C/C=C\CCN(C2=O)[C@@H](Cc2ccc(C)cc2)C(=O)N(C)CC(=O)N[C@@H](CCc2cc(F)c(C(F)(F)F)c(F)c2)C(=O)N2CC3(CC3)C[C@H]2C(=O)NC2(CCC2)C(=O)N(C)[C@@H](C(CC)CC)C(=O)N(C)[C@H](C(=O)N(C)C)CC(=O)N1C [PP3420] | AA (a compound having 20 or more is denoted as AA) | A (a compound having 10 or more and less than 20 is denoted as A) |  |  |
|  | 7.06 | 8.62 |  |  | C#CCN1CC(=O)N(C)[C@H]2C/C=C\CCN(C2=O)[C@@H](Cc2ccc(C)cc2)C(=O)N(C)CC(=O)N[C@@H](CCc2ccc(C(F)(F)F)c(OC)c2)C(=O)N2C[C@H](OCC)C[C@H]2C(=O)NC2(CC(C)(C)C2)C(=O)N(C)[C@@H](C2CCCC2)C(=O)N(C)[C@H](C(=O)N(C)C)CC(=O)N(C)[C@@H](CCC)C(=O)N[C@@H](CC(C)C)C1=O [PP2514] | A (a compound having 10 or more and less than 20 is denoted as A) | B (a compound having 3 or more and less than 10 is denoted as B) |  |  |
|  |  |  | 8.96 | 6.75 | CCO[C@@H]1C[C@H]2C(=O)NC3(CCCC3)C(=O)N(C)[C@@H](C(CC)CC)C(=O)N(C)[C@H](C(=O)N3CCCC3)CC(=O)N(C)[C@@H](C)C(=O)N[C@@H]([C@@H](C)CC)C(=O)N(C)CC(=O)N(C)[C@H]3C/C=C\CCN(C3=O)[C@@H](CC3CCCCC3)C(=O)N(C)CC(=O)N[C@@H](CCc3cc(F)c(C(F)(F)F)c(F)c3)C(=O)N2C1 [PP1435] |  |  | A (a compound having 10 or more and less than 20 is denoted as A) | A (a compound having 10 or more and less than 20 is denoted as A) |
|  |  |  | 9.92 | 7.05 | CCO[C@@H]1C[C@H]2C(=O)NC3(CCCC3)C(=O)N(C)[C@@H](C3CCCC3)C(=O)N(C)[C@H](C(=O)N(C)C)CC(=O)N(C)[C@@H](C)C(=O)N[C@@H]([C@@H](C)CC)C(=O)N(C)CC(=O)N(C)[C@H]3C/C=C\CCN(C3=O)[C@@H](CC3CCC(F)(F)CC3)C(=O)N(C)CC(=O)N[C@@H](CCc3cc(F)c(C(F)(F)F)c(F)c3)C(=O)N2C1 [PP1456] |  |  | A (a compound having 10 or more and less than 20 is denoted as A) | A (a compound having 10 or more and less than 20 is denoted as A) |
| 9.51 | 7.82 |  |  |  | CCO[C@@H]1C[C@H]2C(=O)NC3(CC(C)(C)C3)C(=O)N(C)[C@@H](C3CCCC3)C(=O)N(C)[C@H](C(=O)N(C)C)CC(=O)N(C)[C@@H]([C@H](C)OC)C(=O)N[C@@H]([C@@H](C)CC)C(=O)N(C3CC3)CC(=O)N(C)[C@H]3C/C=C\CCN(C3=O)[C@@H](Cc3ccc(C(F)(F)F)cc3)C(=O)N(C)CC(=O)N[C@@H](CCc3cc(F)c(C(F)(F)F)c(F)c3)C(=O)N2C1 [PP3175] | A (a compound having 10 or more and less than 20 is denoted as A) | A (a compound having 10 or more and less than 20 is denoted as A) |  |  |
|  |  |  | 10.11 | 8.29 | CCO[C@@H]1C[C@H]2C(=O)NC3(CCCC3)C(=O)N(C)[C@@H](C3CCCC3)C(=O)N(C)[C@H](C(=O)N3CCOCC3)CC(=O)N(C)[C@@H](CC)C(=O)N[C@@H]([C@@H](C)CC)C(=O)N(C)CC(=O)N(C)[C@H]3CC[C@@H](C)CN(C3=O)[C@@H](Cc3ccc(C(F)(F)F)cc3)C(=O)N(C)CC(=O)N[C@@H](CCc3cc(F)c(C(F)(F)F)c(F)c3)C(=O)N2C1 [PP1371] |  |  | A (a compound having 10 or more and less than 20 is denoted as A) | B (a compound having 3 or more and less than 10 is denoted as B) |
| 9.55 | 7.77 |  |  |  | CCO[C@@H]1C[C@H]2C(=O)NC3(CCC3)C(=O)N(C)[C@@H](C3CCCC3)C(=O)N(C)[C@H](C(=O)N(C)C)CC(=O)N(C)[C@@H](CC(C)C)C(=O)N[C@@H]([C@@H](C)CC)C(=O)N(C)CC(=O)N(C)[C@H]3C/C(F)=C\CCN(C3=O)[C@@H](Cc3ccc(C)cc3)C(=O)N(C)CC(=O)N[C@@H](CCc3cc(F)c(C(F)(F)F)c(F)c3)C(=O)N2C1 [PP3515] | B (a compound having 3 or more and less than 10 is denoted as B) | B (a compound having 3 or more and less than 10 is denoted as B) |  |  |
|  |  |  | 9.77 | 7.12 | CC[C@H](C)[C@@H]1NC(=O)[C@H](CC)N(C)C(=O)C[C@@H](C(=O)N(C)C)N(C)C(=O)[C@H](C2CCCC2)N(C)C(=O)C2(CCC2)NC(=O)CN(CC)C(=O)[C@H](CCc2cc(F)c(C(F)(F)F)c(F)c2)NC(=O)CN(C)C(=O)[C@H](Cc2ccc(C(F)(F)F)cc2)N2CC/C=C\C[C@@H](C2=O)N(C)C(=O)CN(C)C1=O [PP1143] |  |  | A (a compound having 10 or more and less than 20 is denoted as A) | A (a compound having 10 or more and less than 20 is denoted as A) |
|  |  |  | 10.52 | 8.39 | CCO[C@@H]1C[C@H]2C(=O)NC3(CCCC3)C(=O)N(C)[C@@H](C3CCCC3)C(=O)N(C)[C@H](C(=O)N(C)C)CC(=O)N(C)[C@@H](CC)C(=O)N[C@@H]([C@@H](C)CC)C(=O)N(C)CC(=O)N(C)[C@H]3C[C@@H](C)[C@@H](C)CN(C3=O)[C@@H](Cc3ccc(C(F)(F)F)cc3)C(=O)N(C)CC(=O)N[C@@H](CCc3ccc(C(F)(F)F)c(Cl)c3)C(=O)N2C1 [PP1358] |  |  | A (a compound having 10 or more and less than 20 is denoted as A) | B (a compound having 3 or more and less than 10 is denoted as B) |
|  | 7.57 | 8.85 |  |  | CCC(CC)[C@H]1C(=O)N(C)[C@H](C(=O)N(C)C)CC(=O)N(C)[C@@H](COC)C(=O)N[C@@H]([C@@H](C)CC)C(=O)N(C)CC(=O)N(C)[C@H]2C/C=C\CCN(C2=O)[C@@H](CC2CCC(F)(F)CC2)C(=O)N(C)CC(=O)N[C@@H](CCc2cc(F)c(C(F)(F)F)c(F)c2)C(=O)N2C[C@@H](C)C[C@H]2C(=O)NC2(CC(C)(C)C2)C(=O)N1C [PP2448] | A (a compound having 10 or more and less than 20 is denoted as A) | A (a compound having 10 or more and less than 20 is denoted as A) |  |  |
|  |  |  | 10.14 | 8.43 | CCCC[C@H]1C(=O)N[C@@H]([C@@H](C)CC)C(=O)N(C)CC(=O)N(C)[C@H]2C/C=C\CCN(C2=O)[C@@H](Cc2ccc(C(F)(F)F)cc2)C(=O)N(C)CC(=O)N[C@@H](CCc2cc(F)c(C(F)(F)F)c(F)c2)C(=O)N2C[C@H](OCC)C[C@H]2C(=O)NC2(CCCC2)C(=O)N(C)[C@@H](C2CCCC2)C(=O)N(C)[C@H](C(=O)N(C)C)CC(=O)N1C [PP1397] |  |  | A (a compound having 10 or more and less than 20 is denoted as A) | A (a compound having 10 or more and less than 20 is denoted as A) |
| 9.05 | 7.53 |  |  |  | CCCOC[C@H]1C(=O)N[C@@H](C2CCCC2)C(=O)N(CCC)CC(=O)N(C)[C@H]2C/C=C\CCN(C2=O)[C@@H](Cc2ccc(C(F)F)cc2)C(=O)N(C)CC(=O)N[C@@H](CCc2cc(F)c(C(F)(F)F)c(F)c2)C(=O)N2C[C@H](OCC)C[C@H]2C(=O)N(C)C2(CCC2)C(=O)N(C)[C@@H](C(CC)CC)C(=O)N(C)[C@H](C(=O)N(C)C)CC(=O)N1C [PP3507] | A (a compound having 10 or more and less than 20 is denoted as A) | A (a compound having 10 or more and less than 20 is denoted as A) |  |  |
|  | 8.08 | 9.92 |  |  | CCOC[C@H]1C(=O)N[C@@H]([C@@H](C)CC)C(=O)N(C)CC(=O)N(C)[C@H]2C/C=C\CCN(C2=O)[C@@H](Cc2ccc(C)cc2)C(=O)N(C)CC(=O)N[C@@H](CCc2ccc(C(F)(F)F)c(Cl)c2)C(=O)N2C[C@@H](C)C[C@H]2C(=O)NC2(CC(C)(C)C2)C(=O)N(C)[C@@H](C2CCCC2)C(=O)N(C)[C@H](C(=O)N(C)C)CC(=O)N1C [PP2394] | A (a compound having 10 or more and less than 20 is denoted as A) | B (a compound having 3 or more and less than 10 is denoted as B) |  |  |
| 10.62 | 8.64 |  |  |  | C#CC[C@H]1C(=O)N[C@@H]([C@@H](C)CC)C(=O)N(C)CC(=O)N(C)[C@H]2C/C=C\CCN(C2=O)[C@@H](Cc2ccc(C)cc2)C(=O)N(C)CC(=O)N[C@@H](CCc2ccc(C(F)(F)F)c(Cl)c2)C(=O)N2C[C@H](OCC)C[C@H]2C(=O)N(C)C2(CCC2)C(=O)N(C)[C@@H](C2CCCC2)C(=O)N(C)[C@H](C(=O)N(C)C)CC(=O)N1C [PP3240] | A (a compound having 10 or more and less than 20 is denoted as A) | A (a compound having 10 or more and less than 20 is denoted as A) |  |  |
|  | 7.55 | 9.92 |  |  | CCOC[C@H]1C(=O)N[C@@H]([C@@H](C)CC)C(=O)N(C)CC(=O)N(C)[C@H]2C/C=C\CCN(C2=O)[C@@H](Cc2ccc(C)cc2)C(=O)N(C)CC(=O)N[C@@H](CCc2ccc(C(F)(F)F)c(OC)c2)C(=O)N2C[C@H](C)C[C@H]2C(=O)NC2(CC(C)(C)C2)C(=O)N(C)[C@@H](C2CCCC2)C(=O)N(C)[C@H](C(=O)N(C)C)CC(=O)N1C [PP2393] | A (a compound having 10 or more and less than 20 is denoted as A) | A (a compound having 10 or more and less than 20 is denoted as A) |  |  |
